pIC50: −log10 of the molar value. Where a SMILES comes first, the peptide text is derived from it. Bridges are numbered along the chain shown (N, C = ends). [ ]: non-standard residue; d: D form. The star is where a group is joined. Phe(4-COOH) = N[C@@H](Cc1ccc(C(=O)O)cc1)C(=O)O; Asp(3,3-Me2) = CC(C)(C(=O)O)[C@H](N)C(=O)O; Bip = N[C@@H](Cc1ccc(-c2ccccc2)cc1)C(=O)O; Phe(3-Cl) = N[C@@H](Cc1cccc(Cl)c1)C(=O)O; Phe(3-Me) = Cc1cccc(C[C@H](N)C(=O)O)c1; 3Pal = N[C@@H](Cc1cccnc1)C(=O)O; 4Pal = N[C@@H](Cc1ccncc1)C(=O)O; Cha = N[C@@H](CC1CCCCC1)C(=O)O; Cit = NC(=O)NCCC[C@H](N)C(=O)O; Ahp(2) = CCCCC[C@H](N)C(=O)O; Carboxymethyl = O=C(O)C*; Nle = CCCC[C@H](N)C(=O)O; Orn = NCCC[C@H](N)C(=O)O; Dab = NCC[C@H](N)C(=O)O; Dap = NC[C@H](N)C(=O)O; Aib = CC(C)(N)C(=O)O; Propargyl = C#CC*
Target: T1, human PD-1 / PD-L1-Ig binding on Jurkat cell line over-expressing human PD-1 (Jurkat-PD-1) (Homo sapiens, UniProt Q15116)
T1 construct: expressed in transfected cells; host or cells: Jurkat
T1 sequence (Q15116 25-288): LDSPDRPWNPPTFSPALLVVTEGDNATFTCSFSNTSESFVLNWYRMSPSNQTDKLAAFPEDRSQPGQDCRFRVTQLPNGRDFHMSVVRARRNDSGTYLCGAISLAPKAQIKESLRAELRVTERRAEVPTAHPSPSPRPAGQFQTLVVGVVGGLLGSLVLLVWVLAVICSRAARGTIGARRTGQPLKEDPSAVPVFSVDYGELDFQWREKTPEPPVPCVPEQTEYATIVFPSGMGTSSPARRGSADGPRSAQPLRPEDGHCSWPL
Assay: Jurkat-PD-1 Cell Binding High-Content Screening Assay (CBA)
Format: cell-based
Conditions: Jurkat-PD-1 cells, PE-labeled PD-L1-Ig 20 nM final; read-out: Jurkat HPD1_PDL1 IC50
How it was run: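 PE-PD-L1-Ig 20 nM final; cells in DMEM/10% FCS; cpd pre-incubation 2 h, 37° C; ligand 1 h; PFA fix + Hoechst 33342; high-content imaging read-out.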

| Compound | pIC50 |
| --- | --- |
| CCCC[C@@H]1NC(=O)[C@H](CC(N)=O)NC(=O)[C@@H](CC(C)C)NC(=O)[C@H](CCCN)NC(=O)[C@H](C(C)C)NC(=O)[C@H](Cc2ccc(-c3ccccc3)cc2)NC(=O)[C@H](CC(C)C)NC(=O)[C@H](Cc2c[nH]c3ccccc23)NC(=O)[C@H](CC(=O)O)NC(=O)[C@H](Cc2ccc(C(=O)O)cc2)NC(=O)[C@H](Cc2ccc(OCC(=O)O)cc2)NC(=O)CSC[C@@H](C(=O)NCC(N)=O)NC(=O)[C@H](CO)NC(=O)[C@H](C(C)C)NC1=O [Compound 1340] ({CH2CO}-Y(Carboxymethyl)[Phe(4-COOH)]DWL[Bip]V[Orn][dL]N[Nle]VSCG-NH2; thioether N-14) | 7.66 |
| Cc1cccc(C[C@@H]2NC(=O)[C@H](CC(=O)O)NC(=O)[C@H](Cc3ccc(OCC(=O)O)cc3)NC(=O)[C@H](Cc3ccncc3)NC(=O)CSC[C@@H](C(=O)N[C@@H](CCN)C(N)=O)NC(=O)[C@H](C(C)(C)C(=O)O)NC(=O)[C@H](C(C)C)NC(=O)[C@H](CC3CCCCC3)NC(=O)[C@H](CCN)NC(=O)[C@@H](CC(C)C)NC(=O)[C@H](CCCN)NC(=O)[C@H](Cc3ccc(OCC(=O)O)cc3)NC(=O)[C@H](Cc3ccc(-c4ccccc4)cc3)NC(=O)[C@H](Cc3ccc(OCC(=O)O)cc3)NC2=O)c1 [Compound 2085] ({CH2CO}-[4Pal]Y(Carboxymethyl)D[Phe(3-Me)]Y(Carboxymethyl)[Bip]Y(Carboxymethyl)[Orn][dL][Dab][Cha]V[Asp(3,3-Me2)]C[Dab]-NH2; thioether N-14) | 7.15 |
| CC(C)C[C@H]1NC(=O)[C@H](CCCN)NC(=O)[C@H](CCC(=O)O)NC(=O)[C@H](Cc2ccc(-c3ccccc3)cc2)NC(=O)[C@H](C(C)C)NC(=O)[C@H](Cc2c[nH]c3ccccc23)NC(=O)[C@H](CC(=O)O)NC(=O)[C@H](Cc2ccncc2)NC(=O)[C@H](CC(N)=O)NC(=O)CSC[C@@H](C(=O)N[C@@H](C)C(N)=O)NC(=O)[C@H]([C@@H](C)O)NC(=O)[C@H](C(C)C)NC(=O)[C@H](CC2CCCCC2)NC(=O)[C@H](CCN)NC1=O [Compound 2195] ({CH2CO}-N[4Pal]DWV[Bip]E[Orn][dL][Dab][Cha]VTCA-NH2; thioether N-14) | 7.64 |
| CCCCC[C@@H]1NC(=O)[C@H](C(C)C)NC(=O)[C@H](Cc2ccccc2)NC(=O)[C@H](CC(=O)O)NC(=O)[C@H](CCCNC(=N)N)NC(=O)[C@H](Cc2ccc(-c3ccccc3)cc2)NC(=O)[C@H](C(C)C)NC(=O)[C@H](Cc2c[nH]c3ccccc23)NC(=O)[C@H](CC(=O)O)NC(=O)[C@H](Cc2ccc(O)cc2)NC(=O)[C@H](Cc2ccccc2)NC(=O)CSC[C@@H](C(=O)NCC(N)=O)NC(=O)[C@H](CO)NC(=O)[C@H](C(C)C)NC1=O [Compound 1003] ({CH2CO}-FYDWV[Bip]RDFV[Ahp(2)]VSCG-NH2; thioether N-14) | 6.21 |
| Cc1cccc(C[C@@H]2NC(=O)[C@H](CC(=O)O)NC(=O)[C@H](Cc3ccc(C(=O)O)cc3)NC(=O)[C@H](CN)NC(=O)CSC[C@@H](C(=O)N[C@@H](CCN)C(N)=O)NC(=O)[C@H]([C@@H](C)O)NC(=O)[C@H](C(C)C)NC(=O)[C@H](CC(C)C)NC(=O)[C@H](CCN)NC(=O)[C@@H](CC(C)C)NC(=O)[C@H](CCCN)NC(=O)[C@H](C(C)C)NC(=O)[C@H](Cc3ccc(-c4ccccc4)cc3)NC(=O)[C@H](C(C)C)NC2=O)c1 [Compound 2008] ({CH2CO}-[Dap][Phe(4-COOH)]D[Phe(3-Me)]V[Bip]V[Orn][dL][Dab]LVTC[Dab]-NH2; thioether N-14) | 7.70 |
| C#CCOc1ccc(C[C@@H]2NC(=O)[C@H](Cc3ccc(-c4ccccc4)cc3)NC(=O)[C@H](Cc3ccc(C(=O)O)cc3)NC(=O)[C@H](Cc3cccc(C)c3)NC(=O)[C@H](CC(=O)O)NC(=O)[C@H](Cc3ccc(C(=O)O)cc3)NC(=O)[C@H](Cc3ccc(OCC(=O)O)cc3)NC(=O)CSC[C@@H](C(=O)N[C@@H](CCN)C(N)=O)NC(=O)[C@H](CCC(=O)O)NC(=O)[C@H](C(C)C)NC(=O)[C@H](CC3CCCCC3)NC(=O)[C@H](CCN)NC(=O)[C@@H](CC(C)C)NC(=O)[C@H](CCCN)NC2=O)cc1 [Compound 1844] ({CH2CO}-Y(Carboxymethyl)[Phe(4-COOH)]D[Phe(3-Me)][Phe(4-COOH)][Bip]Y(Propargyl)[Orn][dL][Dab][Cha]VEC[Dab]-NH2; thioether N-14) | 7.88 |
| Cc1cccc(C[C@@H]2NC(=O)[C@H](CC(=O)O)NC(=O)[C@H](Cc3ccc(OCC(=O)O)cc3)NC(=O)[C@H](CN)NC(=O)CSC[C@@H](C(=O)N[C@@H](CCN)C(N)=O)NC(=O)[C@H](CCCN)NC(=O)[C@H](C(C)C)NC(=O)[C@H](CC3CCCCC3)NC(=O)[C@H](Cc3cccnc3)NC(=O)[C@@H](CC(C)C)NC(=O)[C@H](CCCN)NC(=O)[C@H](Cc3ccc(O)cc3)NC(=O)[C@H](Cc3ccc(-c4ccccc4)cc3)NC(=O)[C@H](Cc3ccc(O)cc3)NC2=O)c1 [Compound 2037] ({CH2CO}-[Dap]Y(Carboxymethyl)D[Phe(3-Me)]Y[Bip]Y[Orn][dL][3Pal][Cha]V[Orn]C[Dab]-NH2; thioether N-14) | 7.05 |
| CC(C)C[C@H]1NC(=O)[C@H](CCCN)NC(=O)[C@H](CN)NC(=O)[C@H](Cc2ccc(-c3ccccc3)cc2)NC(=O)[C@H](C(C)C)NC(=O)[C@H](Cc2c[nH]c3ccccc23)NC(=O)[C@H](CC(=O)O)NC(=O)[C@H](Cc2ccc(OCC(=O)O)cc2)NC(=O)[C@H](CC#N)NC(=O)CSC[C@@H](C(=O)N[C@@H](C)C(N)=O)NC(=O)[C@H](C(C)O)NC(=O)[C@H](C(C)C)NC(=O)[C@H](CC2CCCCC2)NC(=O)[C@H](CC(N)=O)NC1=O (some centres unmarked) [Compound 2539] | 6.99 |
| C#CCOc1ccc(C[C@@H]2NC(=O)[C@H](Cc3cccc(C)c3)NC(=O)[C@H](CC(=O)O)NC(=O)[C@H](Cc3ccc(OCC(=O)O)cc3)NC(=O)[C@H](CCCC)NC(=O)CSC[C@@H](C(=O)N[C@@H](CCN)C(N)=O)NC(=O)[C@H](CCC(=O)O)NC(=O)[C@H](C(C)C)NC(=O)[C@H](CC3CCCCC3)NC(=O)[C@H](CCN)NC(=O)[C@@H](CC(C)C)NC(=O)[C@H](CCCN)NC(=O)[C@H](Cc3ccc(OCC(=O)O)cc3)NC(=O)[C@H](Cc3ccc(-c4ccccc4)cc3)NC2=O)cc1 [Compound 1833] ({CH2CO}-[Nle]Y(Carboxymethyl)D[Phe(3-Me)]Y(Propargyl)[Bip]Y(Carboxymethyl)[Orn][dL][Dab][Cha]VEC[Dab]-NH2; thioether N-14) | 8.82 |
| CC(C)C[C@H]1NC(=O)[C@H](CCCN)NC(=O)[C@H](CCCNC(N)=O)NC(=O)[C@H](Cc2ccc(-c3ccccc3)cc2)NC(=O)[C@H](C(C)C)NC(=O)[C@H](Cc2c[nH]c3ccccc23)NC(=O)[C@H](CC(=O)O)NC(=O)[C@H](Cc2cccc(Cl)c2)NC(=O)[C@H](CN)NC(=O)CSC[C@@H](C(=O)N[C@@H](C)C(N)=O)NC(=O)[C@H]([C@@H](C)O)NC(=O)[C@H](C(C)C)NC(=O)[C@H](CC2CCCCC2)NC(=O)[C@H](CCN)NC1=O [Compound 2111] ({CH2CO}-[Dap][Phe(3-Cl)]DWV[Bip][Cit][Orn][dL][Dab][Cha]VTCA-NH2; thioether N-14) | 7.48 |
| CCC(C)[C@@H]1NC(=O)[C@H](Cc2ccc(-c3ccccc3)cc2)NC(=O)[C@H](C(C)C)NC(=O)[C@H](Cc2c[nH]c3ccccc23)NC(=O)[C@H](CC(=O)O)NC(=O)[C@H](Cc2ccc(OCC(=O)O)cc2)NC(=O)[C@H](Cc2cc[nH]c2)NC(=O)CSC[C@@H](C(=O)N[C@H](C)C(N)=O)NC(=O)[C@H](C(C)O)NC(=O)[C@H](C(C)(C)O)NC(=O)[C@H](CC2CCCCC2)NC(=O)[C@H](CCN)NC(=O)[C@@H](CC(C)C)NC(=O)[C@H](CCCN)NC1=O (some centres unmarked) [Compound 2662] | 8.08 |
| Cc1cccc(C[C@@H]2NC(=O)[C@H](CC(=O)O)NC(=O)[C@H](Cc3ccc(C(=O)O)cc3)NC(=O)[C@H](Cc3ccncc3)NC(=O)CSC[C@@H](C(=O)NC(C)(C)C(N)=O)NC(=O)[C@H](CO)NC(=O)[C@H](C(C)C)NC(=O)[C@H](CC3CCCCC3)NC(=O)[C@H](CCN)NC(=O)[C@@H](CC(C)C)NC(=O)[C@H](CCCN)NC(=O)[C@H](Cc3ccc(OCC(=O)O)cc3)NC(=O)[C@H](Cc3ccc(-c4ccccc4)cc3)NC(=O)[C@H](Cc3ccc(OCC(=O)O)cc3)NC2=O)c1 [Compound 2296] ({CH2CO}-[4Pal][Phe(4-COOH)]D[Phe(3-Me)]Y(Carboxymethyl)[Bip]Y(Carboxymethyl)[Orn][dL][Dab][Cha]VSC[Aib]-NH2; thioether N-14) | 8.06 |
| Cc1cccc(C[C@@H]2NC(=O)[C@H](CC(=O)O)NC(=O)[C@H](Cc3ccc(OCC(=O)O)cc3)NC(=O)[C@H](Cc3cccnc3)NC(=O)CSC[C@@H](C(=O)NCC(N)=O)NC(=O)[C@H](CO)NC(=O)[C@H](C(C)C)NC(=O)[C@H](CC3CCCCC3)NC(=O)[C@H](Cc3cnc[nH]3)NC(=O)[C@@H](CC(C)C)NC(=O)[C@H](CCCN)NC(=O)[C@H](C(C)C)NC(=O)[C@H](Cc3ccc(-c4ccccc4)cc3)NC(=O)[C@H](CC(C)C)NC2=O)c1 [Compound 1582] ({CH2CO}-[3Pal]Y(Carboxymethyl)D[Phe(3-Me)]L[Bip]V[Orn][dL]H[Cha]VSCG-NH2; thioether N-14) | 7.44 |
| Cc1cccc(C[C@@H]2NC(=O)[C@H](CC(=O)O)NC(=O)[C@H](Cc3ccc(OCC(=O)O)cc3)NC(=O)[C@H](Cc3cccnc3)NC(=O)CSC[C@@H](C(=O)N[C@@H](C)C(N)=O)NC(=O)[C@H]([C@@H](C)O)NC(=O)[C@H](C(C)C)NC(=O)[C@H](CC(C)C)NC(=O)[C@H](CCN)NC(=O)[C@@H](CC(C)C)NC(=O)[C@H](CCCN)NC(=O)[C@H](CCCNC(N)=O)NC(=O)[C@H](Cc3ccc(-c4ccccc4)cc3)NC(=O)[C@H](C(C)C)NC2=O)c1 [Compound 1225] ({CH2CO}-[3Pal]Y(Carboxymethyl)D[Phe(3-Me)]V[Bip][Cit][Orn][dL][Dab]LVTCA-NH2; thioether N-14) | 8.21 |

Source: patent US20250163104A1, “MACROCYCLIC IMMUNOMODULATORS” (priority 2021, published 2025)
